PMC8698299, “Targeting Mycobacterial F-ATP Synthase C-Terminal α Subunit Interaction Motif on Rotary Subunit γ” (Antibiotics, 2021)

Target: T1, F-ATP synthase (subunit γ, site proposed by docking) (Mycolicibacterium smegmatis, UniProt A0R201)
T1 construct: gene atpG; Recombinant M. smegmatis WT F-ATP synthase, purified and reconstituted into proteoliposomes; with other F-ATP synthase subunits (α3:β3:γ:δ:ε:a:b:b’:c9), in particular subunit α
Assay: ATP synthesis by reconstituted recombinant MsF-ATP synthase, continuous luciferase assay (also IMV ATP synthesis, IC50 […])
Format: biochemical

T1 sequence (A0R201 2-307): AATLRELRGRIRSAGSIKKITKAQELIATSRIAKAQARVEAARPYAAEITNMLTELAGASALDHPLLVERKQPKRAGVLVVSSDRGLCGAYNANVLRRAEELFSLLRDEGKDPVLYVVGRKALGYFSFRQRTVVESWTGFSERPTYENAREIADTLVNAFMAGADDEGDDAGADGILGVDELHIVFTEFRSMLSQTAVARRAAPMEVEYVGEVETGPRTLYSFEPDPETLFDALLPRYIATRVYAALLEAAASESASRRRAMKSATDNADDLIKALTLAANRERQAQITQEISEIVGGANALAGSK

**Q.** COc1cc(NC(=O)C2=C(C)OCCS2)c(Cl)cc1C(=O)NCCCN1CCCC1=O [AlMF1, N-(2-chloro-5-methoxy-4-((3-(2-oxopyrrolidin-1-yl)propyl)carbamoyl)phenyl)-2-methyl-5,6-dihydro-1,4-oxathiine-3-carboxamide] was tested. Which inhibition at 50 µM did it give?
**A.** 71%
